The values below come from patent US9034916B2, “Pharmaceutical composition for the prevention or treatment of a neurodegenerative disease, comprising a Daphne genkwa extract or a compound isolated therefrom” (Korea Research Institute of Bioscience and Biotechnology, priority 2011, dated 2015).

The assay has as its target T1, Nurr1 protein (Homo sapiens, UniProt P43354).
T1 construct: three kinds of plasmid DNAs, including a DNA comprising Nurr1-LBD and a DNA having β-galactosidase, were transfected into BE(2)C cells; expressed in transfected cells; host or cells: BE(2)C human neuroblastoma cells
In words: Nurr1 luciferase reporter assay in BE(2)C cells transfected with Nurr1-LBD. The format is cell-based. The procedure:
A gene comprising eight repeats of a nucleotide sequence (5′-CTCGGAGGACAGTACTCCG-3, SEQ ID NO: 1) to which GLA4 gene can bind was linked to the reporter gene luciferase to synthesize a vector. Then, three kinds of plasmid DNAs, including a DNA comprising Nurr1-LBD and a DNA having β-galactosidase, were transfected into BE(2)C cells, and after 6 hours, the cells were treated with 1-200 ppm of the Daphne genkwa extract. The treated cells were incubated in a 5% CO2 incubator at 37° C. for 20 hours, and then subjected to a luciferase assay (FIG. 1).
FIG. 1 is a graphic diagram showing the results of a luciferase assay conducted to examine the change in Nurr1 protein activity as a function of the concentration of the Daphne genkwa extract. As a control, 0.1% DMSO was used, and the increase in activity was expressed as folds of the activity of the control. […]
The effects of the Daphne genkwa extract fractions, obtained using various solvents in Example 2, on Nurr1 protein activity, were analyzed according to a method similar to the method described in Example 3. […]
According to a method similar to the method described in Example 3, the concentration dependences of the effects of genkwanine N and yuanhuacine on the activity of Nurr1 protein were analyzed, and the results of the analysis are shown in FIG. 5.
(In general: In a reporter assay the amount or activity of a reporter protein is the signal.)

T1 sequence (P43354 360-595 limits assumed): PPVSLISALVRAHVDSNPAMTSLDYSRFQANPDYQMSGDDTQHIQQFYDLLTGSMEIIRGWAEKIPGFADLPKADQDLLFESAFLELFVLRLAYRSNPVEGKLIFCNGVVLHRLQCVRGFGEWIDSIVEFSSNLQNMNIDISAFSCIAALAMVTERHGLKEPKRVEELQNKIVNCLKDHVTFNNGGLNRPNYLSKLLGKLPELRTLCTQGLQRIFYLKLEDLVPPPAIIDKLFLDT

On to `C=C(C)[C@]12C[C@@H](C)[C@@]34OC(c5ccccc5)(O[C@@H]1[C@@H]3[C@@H]1O[C@]1(CO)[C@@H](O)[C@@]1(O)[C@H]4C[C@H](C)[C@@H]1OC(=O)c1ccccc1)O2` [genkwanine N], for which the “increase of activity of Nurr1 protein” value (16 nM (corresponding to 0.01 ppm)) is listed as 60%.

For the compound `C=C(C)[C@@]12OC3(/C=C/C=C/CCCCC)O[C@@H]1[C@@H]1[C@@H]4O[C@]4(CO)[C@@H](O)[C@]4(O)C(=O)C(C)=C[C@H]4[C@@]1(O3)[C@H](C)[C@H]2OC(=O)c1ccccc1` [yuanhuacine], the “increase of activity of Nurr1 protein” value (15 nM (corresponding to 0.01 ppm)) was 70%.
